SMILES strings stand for the structures. Structures can show the parent of a compound that is named as a salt. Where only a bound is given, the exact number is not on record here.

One data set deals with T1, Dopamine D2 receptor (Homo sapiens, UniProt P14416).
T1 construct: purchased Receptor Biology (now owned by NEN) RBHD2CM
T1 sequence (P14416 1-414 isoform P14416-2): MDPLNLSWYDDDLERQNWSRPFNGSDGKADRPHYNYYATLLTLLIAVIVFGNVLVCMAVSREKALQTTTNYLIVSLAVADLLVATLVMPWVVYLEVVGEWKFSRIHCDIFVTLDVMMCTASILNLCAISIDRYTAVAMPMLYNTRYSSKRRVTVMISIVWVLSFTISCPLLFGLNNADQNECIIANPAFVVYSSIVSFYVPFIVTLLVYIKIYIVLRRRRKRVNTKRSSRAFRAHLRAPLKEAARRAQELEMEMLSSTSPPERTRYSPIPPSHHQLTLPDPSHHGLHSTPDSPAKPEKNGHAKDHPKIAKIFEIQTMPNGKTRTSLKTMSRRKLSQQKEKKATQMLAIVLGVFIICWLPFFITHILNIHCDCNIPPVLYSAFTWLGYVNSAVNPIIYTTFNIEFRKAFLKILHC
As to the kind of experiment: Dopamine D2 receptor binding assay ([125I]iodospiperone). To be noted: relative Ki scale of Table 5; read-out: Relative D2 Receptor Binding Affinity Ki. How it is done:
The assay buffers used are 50 mM Tris-HCl pH 7.4, 120 mM NaCl, 5 mM KCl, 5 mM MgCl2, 1 mM EDTA for the Dopamine D2s receptor binding assay. […] The membranes used are from Receptor Biology (now owned by NEN), Cat # RBHD2CM for the D2 receptor.
Compounds are obtained as 10 mM stocks in 100% DMSO. They are diluted to 1 mM in 100% DMSO by adding 180 μL DMSO to 20 μL of stock in 96 well plates using a multidrop. […] This is done using a TECAN robot.
The radioligand is diluted in assay buffer to provide 0.1 nM for the D2 assay. Each vial of membranes is diluted up to 92 mL in assay buffer. The final assay volume is 250 μL consisting of 210 μl of diluted membranes, 20 μL of compound or 10% DMSO for total binding, and 20 μL of diluted radioligand. The compounds are transferred from drug dilution plates into coming 96 well assay plates using a 96 well Multimek pipettor. Radioligand and membranes are added to assay plates using multidrop pipettors. Non-specific binding is determined in wells containing a final concentration of 5 μM haloperidol. The final drug concentration range in half logs is from 10 μM down to 0.1 nM.
After addition of drug, membrane, and ligand, the plates are incubated for 2 hours at room temperature. During this time 96 well Millipore filter plates (MAFBNOB50) are soaked for a least 30 minutes with 200 μL per well of 0.5% polyethyleneimine.
The 0.5% PEI is removed from filterplate wells using a TiterTek MAP aspirator and 200 μL of the incubation mixture is transferred from the incubation plate to the filterplate after mixing. This transfer is done using the 96 tip Mutimek pipettor. After transfer to the filterplate filterplates are extracted and ished twice with 220 μL per well of cold buffer on the MAP aspirator. The peel away bottoms are removed from the filterplates and 60 μL per well of microscint 20 scintillation fluid is added per well using a multidrop. […]
For the molecule `CCCCc1nc2c(s1)Nc1ccccc1N=C2N1CCN[C@@H](CCOC)C1` [Example 305, (S)-10-[3-(2-Methoxy-ethyl)-piperazin-1-yl]-2-butyl-4H-3-thia-1,4,9-triaza-benzo[f]azulene], the Ki fell in the range of 0.01 to 0.1 µM.

In the case of `CCc1nc2c(s1)Nc1ccccc1N=C2N1CCN(C)[C@@H](CCOC)C1` [Example 322, (S)-10-[3-(2-Methoxy-ethyl)-4-methyl-piperazin-1-yl]-2-ethyl-4H-3-thia-1,49-triaza-benzo[f]azulene dihydrochloride], the Ki lay within 0.01 to 0.1 µM. With `CCCN1CCN(C2=Nc3ccccc3Nc3sc(C(C)C)nc32)C[C@@H]1CCOC` [Example 341, (S)-10-[3-(2-Methoxyethyl)-4-propylpiperazin-1-yl]-2-isopropyl-4H-3-thia-1,4,9-triazabenzo[f]azulene dihydrochloride], the Ki fell in the range of 0.01 to 0.1 µM. As for `COCC[C@H]1CN(C2=Nc3ccccc3Nc3sc(C(C)C)nc32)CCN1CCO` [Example 342, (S)-2-[4-(2-Isopropyl-4H-3-thia-1,4,9-triazabenzo[f]azulene-10-yl)-2-(2-methoxyethyl)piperazin-1-yl]ethanol dihydrochloride], the inhibition constant (Ki) is 0.01 to 0.1 µM. Regarding `Cc1cc2c(s1)Nc1ccccc1N=C2N1CCN(C)[C@@H](CC(C)(C)O)C1` [Example 370, (S)-2-Methyl-1-[1-methyl-4-(2-methyl-4H-3-thia-4,9-diazabenzo[f]azulene-10-yl)-piperazin-2-yl]-propan-2-ol dihydrochloride], the Ki lay within 0.1 to 1 µM. As for `CCOCC[C@H]1CN(C2=Nc3ccccc3Nc3sc(C(C)C)nc32)CCN1` [Example 309, (S)-10-[3-(2-Ethoxyethyl)-piperazin-1-yl]-2-isopropyl-4H-3-thia-1,4,9-triazabenzo[f]azulene], the Ki lay within 0.01 to 0.1 µM. The same measure, in the same setting: the result for `Cc1cc2c(s1)Nc1ccccc1N=C2N1CCN(C)[C@@H](CCOc2ccccc2)C1` [Example 269, (S)-10-[4-Methyl-3-(2-phenoxyethyl)piperazin-1-yl]-2-methyl-4H-3-thia-4,9-diazabenzo[f]azulene dihydrochloride] reads 0.01 to 0.1 µM.

As to `COC(C)C[C@H]1CN(C2=Nc3ccccc3Nc3sc(C)cc32)CCN1` (mixture of isomers) [Example 359, 10-[3(S)-(2(S)-Methoxypropyl)-piperazin-1-yl]-2-methyl-4H-3-thia-4,9-diazabenzo[f]azulene and 10-[3(S)-(2(R)-Methoxypropyl)-piperazin-1-yl]-2-methyl-4H-3-thia-4,9-diazabenzo[f]azulene], the Ki fell in the range of 0.01 to 0.1 µM. Consider `CCOCC[C@H]1CN(C2=Nc3ccccc3Nc3sc(C)nc32)CCN1` [Example 302, (S)-10-[3-(2-Ethoxyethyl)-piperazin-1-yl]-2-methyl-4H-3-thia-1,4,9-triazabenzo[f]azulene], for which the Ki is 0.01 to 0.1 µM. In the case of `COCC[C@H]1CN(C2=Nc3ccccc3Nc3sc(CCC(F)(F)F)nc32)CCN1C` [Example 338, (S)-10-[3-(2-Methoxy-ethyl)-4-methyl-piperazin-1-yl]-2-(3,3,3-trifluoro-propyl)-4H-3-thia-1,4,9-triaza-benzo[f]azulene dihydrochloride], the Ki lay within 0.01 to 0.1 µM.

In the case of `CCCc1nc2c(s1)Nc1ccccc1N=C2N1CCN[C@@H](CCOC)C1` [Example 304, (S)-10-[3-(2-Methoxy-ethyl)-piperazin-1-yl]-2-propyl-4H-3-thia-1,4,9-triaza-benzo[f]azulene], the Ki was below 0.01 µM. Regarding `CCCN1CCN(C2=Nc3ccccc3Nc3sc(C(F)(F)F)nc32)C[C@@H]1CCOC` [Example 346, (S)-10-[3-(2-Methoxy-ethyl)-4-propyl-piperazin-1-yl]-2-trifluoromethyl-4H-3-thia-1,4,9-triaza-benzo[f]azulene], the Ki was below 0.01 µM. `COCC[C@H]1CN(C2=Nc3ccccc3Nc3sc(C)nc32)CCN1C` [Example 320, (S)-10-[3-(2-Methoxyethyl)-4-methylpiperazin-1-yl]-2-methyl-4H-3-thia-1,4,9-triazabenzo[f]azulene dihydrochloride]: the inhibitory constant (Ki) lay within 0.01 to 0.1 µM. For `COCC[C@H]1CN(C2=Nc3ccccc3Nc3sc(C4CCCC4)nc32)CCN1C` [Example 331, (S)-10-[3-(2-Methoxyethyl)-4-methylpiperazin-1-yl]-2-cyclopentyl 4H-3-thia-1,4,9-triazabenzo[f]azulene dihydrochloride], the Ki was in the range of 0.01 to 0.1 µM.

Turning to `Cc1cc2c(s1)Nc1ccccc1N=C2N1CCN[C@@H](CC(C)(C)O)C1` [Example 369, (S)-2-Methyl-1-[4-(2-methyl-4H-3-thia-4,9-diaza-benzo[f]azulen-10-yl)piperazin-2-yl]-propan-2-ol], the Ki was in the range of 0.1 to 1 µM. `COCC[C@H]1CN(C2=Nc3ccccc3Nc3sc(C(C)C)nc32)CCN1C1CC1` [Example 339, (S)-10-[4-Cyclopropyl-3-(2-methoxyethyl)piperazin-1-yl]-2-isopropyl-4H-3-thia-1,4,9-triazabenzo[f]azulene dihydrochloride]: the inhibition constant Ki was 0.01 to 0.1 µM. Regarding `COCC[C@H]1CN(C2=Nc3ccccc3Nc3sc(C)cc32)CCN1C` [Example 267, (s)-10-[3-(2-Methoxyethyl)-4-methylpiperazin-1-yl]-2-methyl-4H-3-thia-4,9-diazabenzo[f]azulene dihydrochloride], the Ki fell in the range of 0.01 to 0.1 µM.

Test system in a further data set: not given
Experiment: not given
Settings: not given
As for `CSCC[C@H]1CN(C2=Nc3ccc(F)cc3Nc3sc(C)cc32)CCN1C.Cl.Cl`, the melting point stood at 194 °C. On the same count and under the same terms, the result for `COCC[C@H]1CN(C2=Nc3ccccc3Nc3ccc(C(C)C)cc32)CCN1` [Example 200, (S)-2-Isopropyl-11-[3-(2-methoxy-ethyl)-piperazin-1-yl]-5H-dibenzo[b,e][1,4]diazepine] reads 158 to 160 °C; that for `COCC[C@H]1CN(C2=Nc3ccc(Cl)cc3Nc3sc(C)cc32)CCN1C` (as salt: hydrochloride) [Example 291, (S)-6-Chloro-10-[3-(2-methoxy-ethyl)-4-methyl-piperazin-1-yl]-2-methyl-4H-3-thia-4,9-diaza-benzo[f]azulene dihydrochloride], 174 to 176 °C. `COCC[C@H]1CN(C2=Nc3cc(F)ccc3Nc3sc(C)cc32)CCN1C.Cl` showed a melting point of 192 to 194 °C.

`Cc1cc2c(s1)Nc1ccccc1N=C2N1CCN(C)[C@@H](COCc2ccccc2)C1` [Example 270, (R)-10-(3-Benzyloxymethyl-4-methyl-piperazin-1-yl)-2-methyl-4H-3-thia-4,9-diaza-benzo[f]azulene] displayed a melting point of 55 to 65 °C.

For the molecule `COCC[C@H]1CN(C2=Nc3ccccc3Nc3ccc(Cl)cc32)CCN1C` (as salt: hydrochloride), the melting point came out at 205 °C. The molecule `COCC[C@H]1CN(C2=Nc3cc(Cl)ccc3Nc3sc(C)cc32)CCN1C` (as salt: hydrochloride) [Example 292, (S)-7-Chloro-10-[3-(2-methoxy-ethyl)-4-methyl-piperazin-1-yl]-2-methyl-4H-3-thia-4,9-diaza-benzo[f]azulene dihydrochloride] came in with a melting point of 200 to 202 °C. On the same count and under the same terms, the result for `Cc1cc2c(s1)Nc1ccccc1N=C2N1CCN(C)C(COc2ccccc2)C1` (stereo in doubt) [Example 271, (R)-10-(4-Methyl-3-phenoxymethyl-piperazin-1-yl)-2-methyl 4H-3-thia-4,9-diaza-benzo[f]azulene] reads 74 to 88 °C; that for `COCC[C@H]1CN(C2=Nc3ccc(F)cc3Nc3sc(C)cc32)CCN1` (as salt: hydrochloride) [Example 248b, (S)-6-Fluoro-10-[3-(2-methoxy-ethyl)-piperazin-1-yl]-2-methyl-4H-3-thia-4,9-diaza-benzo[f]azulene dihydrochloride], 90 °C. For `CCOCC[C@H]1CN(C2=Nc3cc(F)ccc3Nc3sc(C)cc32)CCN1C.Cl.Cl`, the melting point was 193 to 195 °C. In the case of `Cc1cc2c(s1)Nc1ccccc1N=C2N1CCN(C)[C@@H](COc2ccccc2)C1` [Example 265, (R)-10-(4-Methyl-3-phenoxymethyl-piperazin-1-yl)-2-methyl-4H-3-thia-4,9-diaza-benzo[f]azulene], the melting point lay in the range of 74 to 88 °C. On the same count and under the same terms, the same measure for `COCC[C@H]1CN(C2=Nc3ccc(F)cc3Nc3sc(C)cc32)CCN1C` (as salt: hydrochloride) [Example 279a, (S)-6-Fluoro 10-[3-(2-methoxy-ethyl)-4-methyl-piperazin-1-yl]-2-methyl-4H-3-thia-4,9-diaza-benzo[f]azulene dihydrochloride]: 190 to 192 °C; for `COC[C@H]1CN(C2=Nc3ccccc3Nc3sc(C)cc32)CCN1C` [Example 260, (R)-10-(3-Methoxymethyl-4-methyl-piperazin-1-yl)-2-methyl-4H-3-thia-4,9-diaza-benzo[f]azulene]: 76 to 80 °C.

The values are drawn from US7384934B2, “Piperazine substituted aryl benzodiazepines” (Eli Lilly and Company, priority 2002, dated 2008).
